Laboratory results: ChEMBL document CHEMBL1201862, “PubChem BioAssay data set” (2004)
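These data come from cells grown in 96-well plates and exposed to compound for 48 hours at five concentrations. GI50: concentration for 50% inhibition of growth.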 Calls of active or inactive are those of the source. Cut-off read from the data, not from the text of the source: active = GI50 up to about 1.1 µM and inactive = higher.

What was measured:
Test in all cases: DTP human tumour cell line panel, 48 h
[1] = test system: A498
[2] = test system: CAKI-1
[3] = test system: MOLT-4
[4] = test system: SF-295
[5] = test system: SR
[6] = test system: HOP-92
[7] = test system: M14
[8] = test system: HCT-116
[9] = test system: KM12
[10] = test system: SNB-75
[11] = test system: SN12C
[12] = test system: NCI-H23
[13] = test system: OVCAR-4
[14] = test system: Malme-3M
[15] = test system: UO-31
[16] = test system: 786-0
[17] = test system: RPMI-8226
[18] = test system: DU-145
[19] = test system: T47D

| SMILES | GI50 [1] | GI50 [2] | GI50 [3] | GI50 [4] | GI50 [5] | GI50 [6] | GI50 [7] | GI50 [8] | GI50 [9] | GI50 [10] | GI50 [11] | GI50 [12] | GI50 [13] | GI50 [14] | GI50 [15] | GI50 [16] | GI50 [17] | GI50 [18] | GI50 [19] |
| --- | --- | --- | --- | --- | --- | --- | --- | --- | --- | --- | --- | --- | --- | --- | --- | --- | --- | --- | --- |
| COC(=O)CCC(=O)C(CC(=O)OC)C(=O)CCC(=O)NCCc1ccccc1 (stereo not drawn) | > 100 µM (inactive) | > 100 µM (inactive) | > 100 µM (inactive) | > 100 µM (inactive) | > 100 µM (inactive) | > 100 µM (inactive) | > 100 µM (inactive) | > 100 µM (inactive) | > 100 µM (inactive) | > 100 µM (inactive) | > 100 µM (inactive) | > 100 µM (inactive) | > 100 µM (inactive) | > 100 µM (inactive) | > 100 µM (inactive) | > 100 µM (inactive) | > 100 µM (inactive) |  |  |
| N=c1n(CC(=O)NC23CC4CC(CC(C4)C2)C3)c2ccccc2n1CC(=O)NC12CC3CC(CC(C3)C1)C2 | 1.7 µM (inactive) | 12 µM (inactive) | 2.64 µM (inactive) | 2.06 µM (inactive) | 1.87 µM (inactive) | 1.65 µM (inactive) | 1.96 µM (inactive) | 2.03 µM (inactive) | 1.61 µM (inactive) | 2.29 µM (inactive) | 1.87 µM (inactive) | 1.74 µM (inactive) | 1.79 µM (inactive) | 1.67 µM (inactive) | 13.2 µM (inactive) | 1.8 µM (inactive) | 2.21 µM (inactive) |  |  |
| COc1ccccc1C(=O)c1ccc2ccccc2c1 |  | 13.8 µM (inactive) | 4.34 µM (inactive) | 22 µM (inactive) | 3.24 µM (inactive) | 18.7 µM (inactive) | 11.9 µM (inactive) | 39.7 µM (inactive) | 4.34 µM (inactive) | 38.2 µM (inactive) | 28.1 µM (inactive) | 40 µM (inactive) | 36 µM (inactive) | 10.8 µM (inactive) | 20.6 µM (inactive) | 30.1 µM (inactive) | 16.2 µM (inactive) | 20.6 µM (inactive) |  |
| COc1cc2nc(-c3cccs3)nc(N3CCN(c4ccccc4C(F)(F)F)CC3)c2cc1OC | > 100 µM (inactive) | 25.2 µM (inactive) | 16.7 µM (inactive) | 51.2 µM (inactive) |  | 21.4 µM (inactive) | > 100 µM (inactive) | > 100 µM (inactive) | 75.5 µM (inactive) | > 100 µM (inactive) | > 100 µM (inactive) | > 100 µM (inactive) | > 100 µM (inactive) | > 100 µM (inactive) | > 100 µM (inactive) | > 100 µM (inactive) | 51.3 µM (inactive) | > 100 µM (inactive) | > 100 µM (inactive) |
| Cc1cc(C)c(C(=O)c2no[n+]([O-])c2C(=O)c2c(C)cc(C)c(Br)c2C)c(C)c1Br | 17.6 µM (inactive) | 11.4 µM (inactive) | 4.65 µM (inactive) | 16.9 µM (inactive) | 4.27 µM (inactive) | 6.19 µM (inactive) | 11.8 µM (inactive) | 10.2 µM (inactive) | 13.6 µM (inactive) | 9.31 µM (inactive) | 14.2 µM (inactive) | 11.5 µM (inactive) | 10.2 µM (inactive) | 14 µM (inactive) | 7.67 µM (inactive) | 15.1 µM (inactive) | 10.2 µM (inactive) |  |  |
| O=C1/C(=C/c2ccc3c(c2)OCCO3)CCC/C1=C\c1ccc2c(c1)OCCO2 | 27.7 µM (inactive) | 39.3 µM (inactive) | 20.5 µM (inactive) | 17 µM (inactive) | 23.8 µM (inactive) | 32.1 µM (inactive) | 19 µM (inactive) | 2.53 µM (inactive) | 6.21 µM (inactive) | 24.9 µM (inactive) | 25.7 µM (inactive) |  | 21.1 µM (inactive) | 29 µM (inactive) | 82.4 µM (inactive) | 22.9 µM (inactive) | 16.1 µM (inactive) |  |  |
| N#Cc1c(N2CCOCC2)[nH]c(=O)c(C(c2c(Cl)cccc2Cl)c2c(O)c(C#N)c(N3CCOCC3)[nH]c2=O)c1O | 34.5 µM (inactive) | 18.1 µM (inactive) | 16.1 µM (inactive) | 30.5 µM (inactive) | 5.89 µM (inactive) | 18 µM (inactive) | 17.9 µM (inactive) | 28.3 µM (inactive) | 16.1 µM (inactive) |  | 20.1 µM (inactive) | 16.2 µM (inactive) | 17.7 µM (inactive) | 12.9 µM (inactive) | 18.2 µM (inactive) | 32 µM (inactive) | 21.4 µM (inactive) | 23.9 µM (inactive) |  |
| CC(=O)OCC1OC(n2cccnc2=O)C(OC(C)=O)C1OC(C)=O (stereo not drawn) | > 100 µM (inactive) | > 100 µM (inactive) | > 100 µM (inactive) |  | > 100 µM (inactive) | > 100 µM (inactive) | > 100 µM (inactive) | > 100 µM (inactive) | > 100 µM (inactive) | > 100 µM (inactive) | > 100 µM (inactive) |  | > 100 µM (inactive) | > 100 µM (inactive) | > 100 µM (inactive) | > 100 µM (inactive) | > 100 µM (inactive) |  |  |
| N#Cc1c(=O)c2ccccc2n2c1[nH]c1ccccc12 | 25.1 µM (inactive) | 35.2 µM (inactive) | 12.4 µM (inactive) | 32.8 µM (inactive) | 0.618 µM (active) |  | 57.5 µM (inactive) | 30.5 µM (inactive) | 27.4 µM (inactive) | 43.1 µM (inactive) | 32.3 µM (inactive) | 55.2 µM (inactive) | 24.1 µM (inactive) |  | 33.7 µM (inactive) | 41 µM (inactive) | 19.2 µM (inactive) | 33.9 µM (inactive) | 22.7 µM (inactive) |
| Cc1cccc(O)c(=O)c1 | 54 µM (inactive) | 63.1 µM (inactive) | 6.38 µM (inactive) | 39.7 µM (inactive) | 15.2 µM (inactive) | 89.3 µM (inactive) | 31.8 µM (inactive) | 11.9 µM (inactive) | 20.3 µM (inactive) | 83.6 µM (inactive) | 37.8 µM (inactive) |  | 45.8 µM (inactive) | 31 µM (inactive) | 73.3 µM (inactive) | 9.12 µM (inactive) | 7.6 µM (inactive) |  |  |
| Nc1c(F)c(F)c2c(c1F)N(CCCCCl)c1ccccc1S2 | > 100 µM (inactive) | > 100 µM (inactive) | > 100 µM (inactive) | > 100 µM (inactive) | > 100 µM (inactive) | > 100 µM (inactive) | > 100 µM (inactive) | > 100 µM (inactive) | > 100 µM (inactive) | 74.6 µM (inactive) | > 100 µM (inactive) | > 100 µM (inactive) | > 100 µM (inactive) | > 100 µM (inactive) | > 100 µM (inactive) | > 100 µM (inactive) | > 100 µM (inactive) | > 100 µM (inactive) | > 100 µM (inactive) |
| CCOC(=O)c1ccc(-n2c(SCC)nc3sc(C)c(C)c3c2=O)cc1 | 25.2 µM (inactive) | > 100 µM (inactive) | > 10 µM (inactive) | > 100 µM (inactive) | > 100 µM (inactive) | 50.7 µM (inactive) | > 100 µM (inactive) | > 100 µM (inactive) | > 100 µM (inactive) | 36.7 µM (inactive) | > 100 µM (inactive) | > 100 µM (inactive) | 53.8 µM (inactive) | > 100 µM (inactive) | > 100 µM (inactive) | 85.9 µM (inactive) | > 100 µM (inactive) |  |  |
